Laboratory results: patent US8754079B2, “Cycloalkyl containing thienopyrimidines for pharmaceutical compositions” (Boehringer Ingelheim International GmbH, priority 2010, dated 2014)
pIC50: −log10 of the molar value.

The molecules below were run against T1, MNK2 (Homo sapiens, UniProt Q9HBH9) (assay: Mnk2a in vitro kinase assay (indirect fluorescence polarization)). Details: pre-activated GST-Mnk2a 2.5 nM, 20 μM ATP, 30 μM substrate peptide.
T1 construct: the open reading frames of human Mnk1 and Mnk2a were amplified from cDNA; made in house; host or cells: E. coli BL21
T1 sequence (Q9HBH9 whole entry): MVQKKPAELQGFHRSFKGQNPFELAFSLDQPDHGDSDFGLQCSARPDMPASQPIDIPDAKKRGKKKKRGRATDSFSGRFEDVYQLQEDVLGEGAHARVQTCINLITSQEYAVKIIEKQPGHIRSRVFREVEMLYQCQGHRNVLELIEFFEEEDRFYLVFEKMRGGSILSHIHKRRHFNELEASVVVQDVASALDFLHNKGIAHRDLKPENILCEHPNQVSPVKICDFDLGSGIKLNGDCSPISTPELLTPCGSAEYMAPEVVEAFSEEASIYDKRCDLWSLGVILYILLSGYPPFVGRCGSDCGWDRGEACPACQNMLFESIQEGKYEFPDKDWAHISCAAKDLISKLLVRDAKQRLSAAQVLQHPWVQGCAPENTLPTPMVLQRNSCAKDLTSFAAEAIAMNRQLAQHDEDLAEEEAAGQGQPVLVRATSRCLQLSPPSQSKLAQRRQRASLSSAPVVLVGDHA
Assay type: biochemical
How it was run: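 Human GST-Mnk2a was expressed in E. coli and activated in vitro with 150 nM pre-activated ERK2 and 50 μM ATP in HEPES pH 7.4/MgCl2 buffer (45 min, 30 °C). Activity on an eIF4E Ser209-derived 12mer peptide was read by competitive fluorescence polarization with a phospho-specific antibody.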

Q: `Cc1c(C(N)=O)sc2ncnc(Nc3ccc(F)cc3O[C@H]3CC[C@H](NC4CCN(C)CC4)CC3)c12` [Example 16, 4-(4-Fluoro-2-(trans-4-(1-methylpiperidin-4-ylamino)cyclohexyloxy)phenylamino)-5-methylthieno[2,3-d]pyrimidine-6-carboxamide] was tested. Which pIC50 did it give?
A: 7.89

Q: How did the pIC50 turn out when `Cc1c(C(N)=O)sc2ncnc(Nc3ccc(F)cc3OC3CCC4(CC3)OCCO4)c12` [Example 19, 4-(2-(1,4-Dioxaspiro[4.5]decan-8-yloxy)-4-fluorophenylamino)-5-methylthieno[2,3-d]pyrimidine-6-carboxamide] was run?
A: 7.51

Q: How did the pIC50 turn out when `COC(=O)c1sc2ncnc(Nc3ccc(F)cc3OC3CCC(=O)CC3)c2c1C` [Example 20, Methyl 4-(4-fluoro-2-(4-oxocyclohexyloxy)phenylamino)-5-methylthieno[2,3-d]pyrimidine-6-carboxylate] was run?
A: 6.44

Q: With `Cc1c(C(N)=O)sc2ncnc(Nc3ccc(F)cc3OC3CCC(=O)CC3)c12` [Example 21, 4-(4-Fluoro-2-(4-oxocyclohexyloxy)phenylamino)-5-methylthieno[2,3-d]pyrimidine-6-carboxamide] as the molecule, how does the pIC50 read?
A: 7.51

Q: With `COCCN(C)[C@H]1CC[C@H](Oc2cc(F)ccc2Nc2ncnc3sc(C(N)=O)c(C)c23)CC1` [Example 22, 4-(4-Fluoro-2-(trans-4-((2-methoxyethyl)(methyl)amino)cyclohexyloxy)phenylamino)-5-methylthieno[2,3-d]pyrimidine-6-carboxamide] as the molecule, how does the pIC50 read?
A: 7.19

Q: `COCCN(C)[C@H]1CC[C@@H](Oc2cc(F)ccc2Nc2ncnc3sc(C(N)=O)c(C)c23)CC1` [Example 23, 4-(4-Fluoro-2-(cis-4-((2-methoxyethyl)(methyl)amino)cyclohexyloxy)phenylamino)-5-methylthieno[2,3-d]pyrimidine-6-carboxamide] was tested. Which pIC50 did it give?
A: 6.04

Q: With `COCCN[C@H]1CC[C@H](Oc2cc(F)ccc2Nc2ncnc3sc(C(N)=O)c(C)c23)CC1` [Example 24, 4-(4-Fluoro-2-(trans-4-(2-methoxyethylamino)cyclohexyloxy)phenylamino)-5-methylthieno[2,3-d]pyrimidine-6-amide] as the molecule, how does the pIC50 read?
A: 7.85

Q: `COCCN[C@H]1CC[C@@H](Oc2cc(F)ccc2Nc2ncnc3sc(C(N)=O)c(C)c23)CC1` [Example 25, 4-(4-Fluoro-2-(cis-4-(2-methoxyethylamino)cyclohexyloxy)phenylamino)-5-methylthieno[2,3-d]pyrimidine-6-carboxamide] was tested. Which pIC50 did it give?
A: 6.52

Q: How did the pIC50 turn out when `Cc1c(C(N)=O)sc2ncnc(Nc3ccc(F)cc3O[C@H]3CC[C@H](N4CCOCC4)CC3)c12` [Example 26, 4-(4-Fluoro-2-(trans-4-morpholinocyclohexyloxy)phenylamino)-5-methylthieno[2,3-d]pyrimidine-6-carboxamide] was run?
A: 7.09

Q: How did the pIC50 turn out when `Cc1c(C(N)=O)sc2ncnc(Nc3ccc(F)cc3O[C@H]3CC[C@@H](N4CCOCC4)CC3)c12` [Example 27, 4-(4-Fluoro-2-(cis-4-morpholinocyclohexyloxy)phenylamino)-5-methylthieno[2,3-d]pyrimidine-6-carboxamide] was run?
A: 5.01

Q: With `COC(=O)c1sc2ncnc(Nc3ccc(F)cc3O[C@@H]3C[C@H](O)C[C@H](O)C3)c2c1C` [Example 28.1] as the molecule, how does the pIC50 read?
A: 6.80

Q: With `CO[C@@H]1C[C@H](OC)C[C@H](Oc2cc(F)ccc2Nc2ncnc3sc(C(N)=O)c(C)c23)C1` [Example 29] as the molecule, how does the pIC50 read?
A: 7.05

Q: With `COC(=O)c1sc2ncnc(Nc3ccc(F)cc3OC3CCC(C)(C)CC3)c2c1C` [Example 31.1] as the molecule, how does the pIC50 read?
A: 7.43

Q: `Cc1c(C(=O)NCCCN(C)C)sc2ncnc(Nc3ccc(F)cc3OC3CCC(C)(C)CC3)c12` [Example 32, 4-[2-(4,4-Dimethyl-cyclohexyloxy)-4-fluoro-phenylamino]-5-methyl-thieno[2,3-d]pyrimidine-6-carboxylic acid (3-dimethylamino-propyl)-amide] was tested. Which pIC50 did it give?
A: 7.44

Q: `Cc1c(C(N)=O)sc2ncnc(Nc3ccc(F)cc3OC3CCC(F)(F)CC3)c12` [Example 33, 4-[2-(4,4-Difluoro-cyclohexyloxy)-4-fluoro-phenylamino]-5-methyl-thieno[2,3-d]pyrimidine-6-carboxylic acid amide] was tested. Which pIC50 did it give?
A: 8.15

Q: `Cc1c(C(=O)NCCCN(C)C)sc2ncnc(Nc3ccc(F)cc3OC3CCC(F)(F)CC3)c12` [Example 34, 4-[2-(4,4-Difluoro-cyclohexyloxy)-4-fluoro-phenylamino]-5-methyl-thieno[2,3-d]pyrimidine-6-carboxylic acid (3-dimethylamino-propyl)-amide] was tested. Which pIC50 did it give?
A: 7.55

Q: With `CC(=O)N[C@H]1C[C@H](Oc2cc(F)ccc2Nc2ncnc3sc(C(=O)O)c(C)c23)C1` [Example 35.2, 4-[2-(trans-3-Acetylamino-cyclobutoxy)-4-fluoro-phenylamino]-5-methyl-thieno[2,3-d]pyrimidine-6-carboxylic acid] as the molecule, how does the pIC50 read?
A: 7.64

Q: How did the pIC50 turn out when `CC(=O)N[C@H]1C[C@H](Oc2cc(F)ccc2Nc2ncnc3sc(C(N)=O)c(C)c23)C1` [Example 35.3, 4-[2-(trans-3-Acetylamino-cyclobutoxy)-4-fluoro-phenylamino]-5-methyl-thieno[2,3-d]pyrimidine-6-carboxylic acid amide] was run?
A: 7.64

Q: With `CC(=O)N[C@H]1C[C@H](Oc2cc(F)ccc2Nc2ncnc3sc(C(=O)NCCCN(C)C)c(C)c23)C1` [Example 36] as the molecule, how does the pIC50 read?
A: 7.18

Q: `CCNC(=O)c1sc2ncnc(Nc3ccc(F)cc3O[C@H]3C[C@H](NC(C)=O)C3)c2c1C` [Example 37] was tested. Which pIC50 did it give?
A: 7.16

Q: With `CONC(=O)c1sc2ncnc(Nc3ccc(F)cc3O[C@H]3C[C@H](NC(C)=O)C3)c2c1C` [Example 38] as the molecule, how does the pIC50 read?
A: 7.15

Q: How did the pIC50 turn out when `CC(=O)N[C@H]1C[C@H](Oc2cc(F)ccc2Nc2ncnc3sc(C(=O)NCCCN4CCCC4)c(C)c23)C1` [Example 39] was run?
A: 7.21

Q: `CC(=O)N[C@H]1C[C@H](Oc2cc(F)ccc2Nc2ncnc3sc(C(=O)NC4CCN(C)CC4)c(C)c23)C1` [Example 40] was tested. Which pIC50 did it give?
A: 7.40

Q: How did the pIC50 turn out when `CC(=O)N[C@H]1C[C@H](Oc2cc(F)ccc2Nc2ncnc3sc(C(=O)NCCO)c(C)c23)C1` [Example 41] was run?
A: 6.82

Q: How did the pIC50 turn out when `CO[C@H]1CCCC[C@@H]1Oc1cc(F)ccc1Nc1ncnc2sc(C(N)=O)c(C)c12` [Example 42, 4-[4-Fluoro-2-((1S,2S)-2-methoxy-cyclohexyloxy)-phenylamino]-5-methyl-thieno[2,3-d]pyrimidine-6-carboxylic acid amide] was run?
A: 6.85

Q: How did the pIC50 turn out when `CO[C@H]1CCCC[C@@H]1Oc1cc(F)ccc1Nc1ncnc2sc(C(=O)NCCCN(C)C)c(C)c12` [Example 43, 4-[4-Fluoro-2-((1S,2S)-2-methoxy-cyclohexyloxy)-phenylamino]-5-methyl-thieno[2,3-d]pyrimidine-6-carboxylic acid (3-dimethylamino-propyl)-amide] was run?
A: 6.44

Q: How did the pIC50 turn out when `Cc1c(C(N)=O)sc2ncnc(Nc3ccc(F)cc3O[C@H]3CCCC[C@@H]3O)c12` [Example 51, 4-[4-Fluoro-2-((1S,2S)-2-hydroxy-cyclohexyloxy)-phenylamino]-5-methyl-thieno[2,3-d]pyrimidine-6-carboxylic acid amide] was run?
A: 7.89

Q: `Cc1c(C(N)=O)sc2ncnc(Nc3ccc(F)cc3O[C@@H]3CCCC[C@H]3O)c12` [Example 52, 4-[4-Fluoro-2-((1R,2R)-2-hydroxy-cyclohexyloxy)-phenylamino]-5-methyl-thieno[2,3-d]pyrimidine-6-carboxylic acid amide] was tested. Which pIC50 did it give?
A: 7.52

Q: With `Cc1c(C(=O)NCCCN(C)C)sc2ncnc(Nc3ccc(F)cc3O[C@@H]3CCCC[C@H]3O)c12` [Example 53, 4-[4-Fluoro-2-((1R,2R)-2-hydroxy-cyclohexyloxy)-phenylamino]-5-methyl-thieno[2,3-d]pyrimidine-6-carboxylic acid (3-dimethylamino-propyl)-amide] as the molecule, how does the pIC50 read?
A: 7.27

Q: With `COCCNC(=O)c1sc2ncnc(Nc3ccc(F)cc3O[C@@H]3CCCC[C@H]3O)c2c1C` [Example 54, 4-[4-Fluoro-2-((1R,2R)-2-hydroxy-cyclohexyloxy)-phenylamino]-5-methyl-thieno[2,3-d]pyrimidine-6-carboxylic acid (2-methoxy-ethyl)-amide] as the molecule, how does the pIC50 read?
A: 7.21

Q: With `Cc1c(C(=O)NCCCN2CCCC2)sc2ncnc(Nc3ccc(F)cc3O[C@H]3CCC[C@H](O)C3)c12` [Example 75] as the molecule, how does the pIC50 read?
A: 7.74

Q: `COC1CCCC(Oc2cc(F)ccc2Nc2ncnc3sc(C(=O)NCC#CCN)c(C)c23)C1` (stereo not shown) [Example 80] was tested. Which pIC50 did it give?
A: 7.51

Q: How did the pIC50 turn out when `COC1CCCC(Oc2cc(F)ccc2Nc2ncnc3sc(C(=O)NCCCCO)c(C)c23)C1` (stereo not shown) [Example 81] was run?
A: 7.01

Q: `COC1CCCC(Oc2cc(F)ccc2Nc2ncnc3sc(C(=O)NCC4COCCN4)c(C)c23)C1` (stereo not shown) [Example 84] was tested. Which pIC50 did it give?
A: 7.04

Q: How did the pIC50 turn out when `COC1CCCC(Oc2cc(F)ccc2Nc2ncnc3sc(C(=O)NC4CCN(C)CC4)c(C)c23)C1` (stereo not shown) [Example 86] was run?
A: 7.03

Q: With `COC1CCCC(Oc2cc(F)ccc2Nc2ncnc3sc(C(=O)NCCCN4CCCC4)c(C)c23)C1` (stereo not shown) [Example 87] as the molecule, how does the pIC50 read?
A: 7.42

Q: With `COC1CCCC(Oc2cc(F)ccc2Nc2ncnc3sc(C(=O)NC4CC4N)c(C)c23)C1` (stereo not shown) [Example 90] as the molecule, how does the pIC50 read?
A: 7.47

Q: With `COC1CCCC(Oc2cc(F)ccc2Nc2ncnc3sc(C(=O)NCC#N)c(C)c23)C1` (stereo not shown) [Example 94] as the molecule, how does the pIC50 read?
A: 7.68

Q: How did the pIC50 turn out when `COC1CCCC(Oc2cc(F)ccc2Nc2ncnc3sc(C(=O)NCC#CCN(C)C)c(C)c23)C1` (stereo not shown) [Example 96] was run?
A: 7.85

Q: With `COC1CCCC(Oc2cc(F)ccc2Nc2ncnc3sc(C(=O)NCC4COCCN4)c(C)c23)C1` (stereo not shown) [Example 99] as the molecule, how does the pIC50 read?
A: 7.44

Q: With `COC1CCCC(Oc2cc(F)ccc2Nc2ncnc3sc(C(=O)NC4CCN(C)CC4)c(C)c23)C1` (stereo not shown) [Example 102] as the molecule, how does the pIC50 read?
A: 7.47

Q: With `COC1CCCC(Oc2cc(F)ccc2Nc2ncnc3sc(C(=O)NCc4cn(C)cn4)c(C)c23)C1` (stereo not shown) [Example 107] as the molecule, how does the pIC50 read?
A: 7.74

Q: How did the pIC50 turn out when `COC1CCCC(Oc2cc(F)ccc2Nc2ncnc3sc(C(=O)NCCCN(C)C)c(C)c23)C1` (stereo not shown) [Example 108] was run?
A: 7.72

Q: How did the pIC50 turn out when `COC1CCCC(Oc2ncccc2Nc2ncnc3sc(C(=O)NCC#N)c(C)c23)C1` (stereo not shown) [Example 115] was run?
A: 7.72

Q: With `COC1CCCC(Oc2ncccc2Nc2ncnc3sc(C(=O)NCC#CCN(C)C)c(C)c23)C1` (stereo not shown) [Example 117] as the molecule, how does the pIC50 read?
A: 7.92

Q: `COC1CCCC(Oc2ncccc2Nc2ncnc3sc(C(=O)NC4CCN(C)CC4)c(C)c23)C1` (stereo not shown) [Example 123] was tested. Which pIC50 did it give?
A: 7.59
